Results from US8337835B2, “Use of an endogenous ligand for peroxisome proliferator activated receptor alpha to treat liver disorders” (priority 2009, dated 2012).

Key:
[1] = molecular target: T1, PPARα ligand binding domain (LBD) (Homo sapiens, UniProt Q07869); assay: ALPHASCREEN binding assay, PPARα ligand binding domain
T1 construct: 6xHis; made in house
T1 sequence (Q07869 239-466 limits assumed): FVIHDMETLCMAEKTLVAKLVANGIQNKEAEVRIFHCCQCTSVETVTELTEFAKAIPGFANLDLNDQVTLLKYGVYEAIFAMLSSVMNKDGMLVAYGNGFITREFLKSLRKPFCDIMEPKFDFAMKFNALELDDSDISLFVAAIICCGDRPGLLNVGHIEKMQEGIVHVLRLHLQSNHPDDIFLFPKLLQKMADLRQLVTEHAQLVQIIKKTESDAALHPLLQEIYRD
Description: Binding of 16:0/18:1-GPC and known agonists to the ligand binding domain (LBD) of PPARα in the presence of various peptide motifs was determined by ALPHASCREEN™ assay (Proc Natl Acad Sci USA 105, pp. 5034-5039, 2008). Experiments used 100 nM receptor LBD, purified as 6× His tag fusion proteins (Mol Cell 17, pp. 491-502, 2005), and 20 nM of N-terminal biotinylated CBP1 peptide or other coactivator peptides in the presence of 5 μg/ml donor and acceptor beads in 50 mM MOPS (pH 7.4), 100 mM NaCl, and 0.1 mg/ml BSA for 90 min at 25° C. Signals were generated in the absence or the presence of ligand. Identical experiments were performed using the PPARδ and PPARγ LBDs.
(§1) Stealth™ siRNA oligonucleotides were used to inhibit the gene expression of mouse ChPT1 ([…]) (SEQ ID NO: 1) and CEPT1 ([…]) (SEQ ID NO: 2) were from Invitrogen (Carlsbad, Calif.). […] Expression of ACO and CPT-1 was also assessed 24 h after addition of 50 μM 16:0/18:1-GPC in a subset of Hepa 1-6 cells previously treated with CEPT1 siRNA. mRNA levels are normalized to control L32 ribosomal mRNA. […] FIGS. 6F-H show the binding of various peptide motifs to the purified PPARα (FIG. 6F), PPARδ (FIG. 6G), and PPARγ (FIG. 6H) LBD in the presence of 5 μM of the corresponding PPAR agonist or 16:0/18:1-GPC as measured by AlphaScreen assays. […]

[2] = system: PPARα-dependent genes (ACO and CPT-1) after CEPT1 knockdown; assay: Rescue of ACO and CPT-1 expression in Hepa 1-6 cells treated with CEPT1 siRNA; format: cell-based, mouse; settings: 72 h CEPT1 siRNA, then 50 μM for 24 h
Description: The C57BL/6 mouse hepatoma cell line Hepa 1-6 (ATCC, CRL-1830) was expanded in DMEM with 10% fetal bovine serum. For experiments, cells were cultured to 50-60% confluence, washed twice with PBS, and the medium was changed to serum-free DMEM supplemented with the various types and concentrations of phosphatidylcholine (sonicated to homogeneity in PBS/1% ethanol/4% fatty acid-free BSA), Wy14,643 (dissolved in 80% PBS/20% DMSO), or vehicle-only solutions. 24 h later, cells were washed, RNA prepared, and ACO and CPT-1 expression levels were determined by quantitative RT-PCR (see FIG. 6). For siRNA experiments, 50-60% confluent cells were treated with siRNAs or their scrambled controls (all diluted in PBS) for 72 h. […]
as §1

With `CCCCCCCC/C=C\CCCCCCCC(=O)O[C@H](COC(=O)CCCCCCCCCCCCCCC)COP(=O)([O-])OCC[N+](C)(C)C` [16:0/18:1-GPC, 1-palmitoyl-2-oleoyl-sn-glycerol-3-phosphocholine] the “binding affinity to PPARα compared with Wy14,643” value [1] was “binds with sufficient affinity to PPARα comparable to Wy14,643” and the “rescue of decreased PPARα-dependent genes (ACO, CPT-1) after CEPT1 knockdown” value [2] was “rescued”.
